Measurements from PubChem BioAssay AID1996.
In brackets after ≈: the same amount, converted by molar mass.

conditions: buffer; pH 7.4; 200.0 µM

**Q.** Which solubility kinetic does the source give for `O=C(Nc1ccc(S(=O)(=O)Nc2ncccn2)cc1)C12CC3CC(CC(Cl)(C3)C1)C2` here?
**A.** > 67 µg/mL

**Q.** With `Cc1cc(C(=O)COC(=O)c2cccnc2Cl)c(C)n1C` as the compound, how does the solubility kinetic read?
**A.** 13 µg/mL (≈ 42.4 µM)

**Q.** For `COc1ccccc1N1CCN(CC(O)c2ccccc2)CC1` (stereo unspecified), which solubility kinetic is on record?
**A.** 37.6 µg/mL (≈ 120 µM)

**Q.** With `CC(=O)N(CCC(c1ccco1)C(C)C)Cc1ccc(Cl)cc1` (stereo unspecified) as the compound, how does the solubility kinetic read?
**A.** 16.4 µg/mL (≈ 49.1 µM)

**Q.** Which solubility kinetic does the source give for `Cc1ccc(S(=O)(=O)Nc2ncnc3ccccc23)cc1` here?
**A.** > 44.9 µg/mL

**Q.** Which solubility kinetic does the source give for `CS(=O)(=O)c1ccc2nc(NC(=O)C3CCCO3)sc2c1` (stereo unspecified) here?
**A.** 43.8 µg/mL (≈ 134 µM)

**Q.** Which solubility kinetic does the source give for `Cc1ccc2oc(C(=O)Nc3nonc3C)c(C)c2c1` here?
**A.** < 0.2 µg/mL

**Q.** Which solubility kinetic does the source give for `O=c1c2[nH]cnc2n(-c2ccc(F)cc2)c(=O)n1Cc1ccccc1` here?
**A.** > 50.4 µg/mL

**Q.** For `Cc1ccccc1C(=O)Nc1ccc(N(C)C)c2ccccc12`, which solubility kinetic is on record?
**A.** 13.6 µg/mL (≈ 44.7 µM)

**Q.** Which solubility kinetic does the source give for `CCOc1cc(C(=S)N2CCCC2)ccc1O` here?
**A.** > 37.7 µg/mL

**Q.** For `Cc1ccc(-c2noc(CCCC(=O)NC3CCCCC3)n2)cc1`, which solubility kinetic is on record?
**A.** 7.8 µg/mL (≈ 23.8 µM)

**Q.** For `COc1cccc2cc(C(=O)NCc3ccc(F)cc3)c(=N)oc12`, which solubility kinetic is on record?
**A.** 1.7 µg/mL (≈ 5.21 µM)

**Q.** Which solubility kinetic does the source give for `COc1ccc(F)cc1COc1nc(C)nc2ccccc12` here?
**A.** 28.3 µg/mL (≈ 94.9 µM)

**Q.** For `CC(=O)Nc1ccccc1C(=O)C(=O)Nc1ccc(F)c(Cl)c1`, which solubility kinetic is on record?
**A.** 2.4 µg/mL (≈ 7.17 µM)

**Q.** Which solubility kinetic does the source give for `COc1ccccc1C1CC(=O)Nc2cc(C)c(C)cc21` (stereo unspecified) here?
**A.** < 0.6 µg/mL

**Q.** With `CCC(C)[C@H](NC(=O)Nc1ccccc1F)C(=O)OC` (stereo partly specified) as the compound, how does the solubility kinetic read?
**A.** > 42.3 µg/mL

**Q.** With `CCCCOc1ccc(C(=O)Oc2cccnc2)cc1` as the compound, how does the solubility kinetic read?
**A.** 1.5 µg/mL (≈ 5.53 µM)

**Q.** With `CC(=O)NCCc1nc2ccccc2n1Cc1ccc(Cl)cc1` as the compound, how does the solubility kinetic read?
**A.** > 49.2 µg/mL

**Q.** With `COc1ccc2nc(-c3ccccn3)[nH]c2c1` as the compound, how does the solubility kinetic read?
**A.** 24.8 µg/mL (≈ 110 µM)

**Q.** Which solubility kinetic does the source give for `CC(CCc1ccc(O)cc1)NCc1ccc(Cl)cc1Cl` (stereo unspecified) here?
**A.** > 48.6 µg/mL

**Q.** Which solubility kinetic does the source give for `Oc1ccccc1-c1nc(NCc2ccccc2)c2ccccc2n1` here?
**A.** < 0.2 µg/mL

**Q.** Which solubility kinetic does the source give for `O=C(CCS(=O)(=O)c1ccccc1)N1CCCc2ccccc21` here?
**A.** 49.2 µg/mL (≈ 149 µM)

**Q.** For `COc1ccc(/C=C(\C#N)C(=O)Nc2ccccn2)cc1`, which solubility kinetic is on record?
**A.** 3.5 µg/mL (≈ 12.5 µM)

**Q.** With `CC(C)[C@H](NC(=O)c1ccccc1Cl)C(=O)OCC(=O)N1CCCCC1` as the compound, how does the solubility kinetic read?
**A.** > 57.1 µg/mL

**Q.** Which solubility kinetic does the source give for `Cc1ccc(S(=O)(=O)N2CCC(=O)CC2)cc1` here?
**A.** > 38 µg/mL

**Q.** With `Cc1cc(Br)ccc1NC(=O)c1ccco1` as the compound, how does the solubility kinetic read?
**A.** > 42 µg/mL

**Q.** With `CCC/C(O)=C1\C(=O)CC(C)(C)CC1=Nc1cccc([N+](=O)[O-])c1` as the compound, how does the solubility kinetic read?
**A.** 42.6 µg/mL (≈ 129 µM)

**Q.** Which solubility kinetic does the source give for `Cn1cnc2cc(NCc3ccc(Cl)cc3)ccc21` here?
**A.** > 40.8 µg/mL

**Q.** With `Cc1ccc(Nc2ccc(C(=O)O)cc2[N+](=O)[O-])cc1` as the compound, how does the solubility kinetic read?
**A.** > 40.8 µg/mL

**Q.** Which solubility kinetic does the source give for `Cc1ccc(N=Cc2c(O)n(C)c(=O)n(C)c2=O)cc1` here?
**A.** 6.1 µg/mL (≈ 22.3 µM)

**Q.** Which solubility kinetic does the source give for `COCC(=O)N1CCN(c2nc3ccccc3o2)CC1` here?
**A.** > 41.3 µg/mL

**Q.** With `COc1ccc(C(=O)NC(C)CCc2ccccc2)c(OC)c1` (stereo unspecified) as the compound, how does the solubility kinetic read?
**A.** 41.5 µg/mL (≈ 132 µM)

**Q.** Which solubility kinetic does the source give for `Nc1ncnc2c1ncn2C1OC(C(=O)NC2CC2)C(O)C1O` (stereo unspecified) here?
**A.** > 48 µg/mL

**Q.** Which solubility kinetic does the source give for `O=C(CSc1nc2cc(Cl)ccc2o1)NC1CC1` here?
**A.** > 42.4 µg/mL

**Q.** For `CC(Oc1ccc(F)cc1)C(=O)N1CCN(c2ncccn2)CC1` (stereo unspecified), which solubility kinetic is on record?
**A.** > 49.6 µg/mL

**Q.** With `OCCC1CN(C2CCC2)CCN1Cc1ccc(F)c(F)c1` (stereo unspecified) as the compound, how does the solubility kinetic read?
**A.** 43 µg/mL (≈ 139 µM)

**Q.** With `C=CCNC(=O)COc1ccc(S(=O)(=O)N2CCCC2)cc1` as the compound, how does the solubility kinetic read?
**A.** > 48.7 µg/mL

**Q.** Which solubility kinetic does the source give for `COc1ccc(CCC(=O)NCC2CCCCC2)cc1OC` here?
**A.** > 45.8 µg/mL

**Q.** Which solubility kinetic does the source give for `CC(=O)N/C(=N/c1nc(C)cc(C)n1)Nc1ccc(C)cc1C` here?
**A.** 3.4 µg/mL (≈ 10.9 µM)

**Q.** With `Cc1ccc(NC(=O)c2cc3c(s2)CCCC3)cc1` as the compound, how does the solubility kinetic read?
**A.** 4 µg/mL (≈ 14.7 µM)

**Q.** With `CCN1CCc2c(OCC(=O)N3CCCc4ccccc43)cccc2C1=O` as the compound, how does the solubility kinetic read?
**A.** > 54.7 µg/mL

**Q.** Which solubility kinetic does the source give for `COc1cccc(NC(=O)CSc2nnc(-c3cccnc3)o2)c1` here?
**A.** > 51.4 µg/mL

**Q.** With `Cc1ccc(N(Cc2cc(=O)[nH]c3ccccc23)C(=O)CCl)c(C)c1` as the compound, how does the solubility kinetic read?
**A.** 14.1 µg/mL (≈ 39.7 µM)

**Q.** For `Cc1ccc(C(C)C)cc1OCC(=O)NC1CCCCCCC1`, which solubility kinetic is on record?
**A.** < 0.7 µg/mL

**Q.** Which solubility kinetic does the source give for `Cc1ccc2nc3cc([N+](=O)[O-])cc([N+](=O)[O-])c3cc2c1` here?
**A.** 0.8 µg/mL (≈ 2.82 µM)

**Q.** For `O=C(Nc1ccc2oc(-c3ccncc3)nc2c1)c1ccc(F)cc1`, which solubility kinetic is on record?
**A.** 0.9 µg/mL (≈ 2.7 µM)

**Q.** Which solubility kinetic does the source give for `COc1ccc(C(=O)O)cc1S(N)(=O)=O` here?
**A.** > 34.7 µg/mL

**Q.** Which solubility kinetic does the source give for `O=C(Nc1ccc(F)cc1)C1C2CCC3C(CCC21)C3(Cl)Cl` (stereo unspecified) here?
**A.** 0.8 µg/mL (≈ 2.34 µM)

**Q.** With `Cl.OC(CNCC#Cc1ccccc1)c1ccccc1` (stereo unspecified) as the compound, how does the solubility kinetic read?
**A.** 35.9 µg/mL

**Q.** Which solubility kinetic does the source give for `Br.Fc1ccccc1CNCC1CCCO1` (stereo unspecified) here?
**A.** 43.1 µg/mL

**Q.** With `COc1ccc(N(C=O)C(C(=O)Nc2c(C)cccc2C)c2ccccc2)cc1` (stereo unspecified) as the compound, how does the solubility kinetic read?
**A.** 1.6 µg/mL (≈ 4.12 µM)

**Q.** With `CC(OC(=O)C1CC1)C(=O)Nc1cc(Cl)cc(Cl)c1` (stereo unspecified) as the compound, how does the solubility kinetic read?
**A.** > 45.3 µg/mL

**Q.** With `Cc1ccc(-c2nc(-c3ccncc3)no2)cc1` as the compound, how does the solubility kinetic read?
**A.** 1.1 µg/mL (≈ 4.64 µM)

**Q.** For `CCC1(C)Cc2ccccc2C(=O)N1` (stereo unspecified), which solubility kinetic is on record?
**A.** 25.2 µg/mL (≈ 133 µM)

**Q.** With `COCCNC(=O)c1cc2cc(Br)cc(Br)c2oc1=O` as the compound, how does the solubility kinetic read?
**A.** 1.6 µg/mL (≈ 3.95 µM)

**Q.** Which solubility kinetic does the source give for `CN1CCN(C(=O)/C(=C\c2cccs2)NC(=O)c2ccccc2)CC1` here?
**A.** > 53.3 µg/mL

**Q.** For `NC(=O)CSc1nc2ccccc2c(=O)n1Cc1ccccc1`, which solubility kinetic is on record?
**A.** 2.5 µg/mL (≈ 7.68 µM)

**Q.** With `COCC(=O)N1CCN(c2cccc(Cl)c2)CC1` as the compound, how does the solubility kinetic read?
**A.** > 40.3 µg/mL

**Q.** With `Cc1cc(C(c2cc(C)c(N)c(C)c2)c2ccco2)cc(C)c1N` as the compound, how does the solubility kinetic read?
**A.** 23.9 µg/mL (≈ 74.6 µM)

**Q.** With `COc1ccc2nc(C)cc(Nc3cccc(C(=O)O)c3)c2c1` as the compound, how does the solubility kinetic read?
**A.** 3.3 µg/mL (≈ 10.7 µM)

**Q.** With `Cc1ccc(S(=O)(=O)N2CCCCCC2)cc1C(=O)NCc1ccccn1` as the compound, how does the solubility kinetic read?
**A.** 55.7 µg/mL (≈ 144 µM)
